In the assay the test system is K-562 leukemia growth, % test/control. Description: Anticancer human tumor K-562 cell line growth inhibition.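 On all read-outs here: spheroids exposed to compounds for 7 days.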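 On viability, T/C: 100% = DMSO vehicle wells and lower values mean fewer viable cells.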 Particulars: spheroids with HUVEC and MSC; for viability, T/C: stronger effect = lower value. The essentials: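 Complex spheroids of tumor cells with HUVEC and human MSCs, exposed to iadademstat combined with other agents. Each agent tested in half-log steps from near clinical Cmax (else 10 microM top), DMSO ≤0.25%.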

“And” between values parts separate entries of the source, which are not always exact repeats. Equal values may be shown once.

For orientation: IC50 means the concentration that inhibits the measured activity by half. Broadly, the viability, T/C is the result in the treated group divided by that in the control group, in per cent. As for `CCc1c2c(nc3ccc(O)cc13)-c1cc3c(c(=O)n1C2)COC(=O)[C@]3(O)CC` + NC1CC1c1ccc(-c2cccc(O)c2)cc1, the IC50 reads like this: (curve of first compound, second compound 0.1 µM) less than 0.949 nM; (curve of first compound, second compound 0.316 µM) less than 0.949 nM; (curve of first compound, second compound 1 µM) less than 0.949 nM; (curve of first compound, second compound 3.16 µM) less than 0.949 nM; (curve of first compound, second compound 10 µM) less than 0.949 nM. Moreover, the viability, T/C (second compound 0.1 µM, first compound 0.000949 µM) is 10.6%; the viability, T/C (second compound 0.1 µM, first compound 0.003 µM) is 4.88%; the viability, T/C (second compound 0.1 µM, first compound 0.00949 µM) was 2.16%; the viability, T/C (second compound 0.1 µM, first compound 0.03 µM) is 0.75%; the viability, T/C (second compound 0.1 µM, first compound 0.0949 µM) was 0.56%; the viability, T/C (second compound 0.1 µM, first compound 0.3 µM) is 0.55%. Besides, the viability, T/C by setting is: (second compound 0.316 µM, first compound 0.000949 µM) 8.09%; (second compound 0.316 µM, first compound 0.003 µM) 3.51%; (second compound 0.316 µM, first compound 0.00949 µM) 1.86%; (second compound 0.316 µM, first compound 0.03 µM) 0.71%; (second compound 0.316 µM, first compound 0.0949 µM) 0.44%; (second compound 0.316 µM, first compound 0.3 µM) 0.5%. Besides, the viability, T/C was 7.04% (second compound 1 µM, first compound 0.000949 µM); 3.48% (second compound 1 µM, first compound 0.003 µM); 1.67% (second compound 1 µM, first compound 0.00949 µM); 0.89% (second compound 1 µM, first compound 0.03 µM); 0.51% (second compound 1 µM, first compound 0.0949 µM); 0.57% (second compound 1 µM, first compound 0.3 µM). Also, the viability, T/C is 7.47% (second compound 3.16 µM, first compound 0.000949 µM); 4.23% (second compound 3.16 µM, first compound 0.003 µM); 2.63% (second compound 3.16 µM, first compound 0.00949 µM); 0.67% (second compound 3.16 µM, first compound 0.03 µM); 0.46% (second compound 3.16 µM, first compound 0.0949 µM); 0.55% (second compound 3.16 µM, first compound 0.3 µM). In addition, the viability, T/C is, setting by setting: (second compound 10 µM, first compound 0.000949 µM) 5.81%; (second compound 10 µM, first compound 0.003 µM) 2.92%; (second compound 10 µM, first compound 0.00949 µM) 1.32%; (second compound 10 µM, first compound 0.03 µM) 0.74%; (second compound 10 µM, first compound 0.0949 µM) 0.43%; (second compound 10 µM, first compound 0.3 µM) 1.23%.
Turning to `COc1cc(C2c3cc4c(cc3C(OC3OC5COC(C)OC5C(O)C3O)C3COC(=O)C23)OCO4)cc(OC)c1O` (configuration not stated), the viability, T/C runs as follows: (compound 0.00949 µM) 89.7% and 84.4%; (compound 0.03 µM) 48.8% and 36.5%; (compound 0.0949 µM) 23.6% and 39.6%; (compound 0.3 µM) 41% and 42.6%; (compound 0.949 µM) 34.9% and 9.87%; (compound 3 µM) 8.88% and 1.67%. Besides, the 50% inhibitory concentration (IC50) (curve of compound) is 29 nM and 52.1 nM.

Values taken from PubChem BioAssay AID1918948 (Molecular Pharmacology Branch, DTP, NCI, 2023).
